Patent publication US20070082916A1, “Fungicidal mixtures for controlling rice pathogens” (BASF AKTIENGESEELSCHAFT, priority 2003, published 2007)

Test system: Corticium sasakii
Experiment: Activity against sheath blight on rice caused by Corticium sasakii (protective spray on potted rice plants)
Format: in vivo
Conditions: individual active compound, rice cultivar Tai-Nong 67, evaluated after 11 days, untreated control 90% infection
Description: 1% by weight of the emulsifier Uniperol® EL (wetting agent having emulsifying and dispersing action based on ethoxylated alkylphenols) was added to this solution, and the solution was diluted with water to the desired concentration.
Use example—Activity against sheath blight on rice caused by Corticium sasakii
The next day, oat grains infected with Corticium sasakii were placed into the pots (in each case 5 grains per pot). The plants were then placed in a chamber at 26° C. and maximum atmospheric humidity.
Evaluation is carried out by determining the infected leaf areas in percent. These percentages were converted into efficacies.
The efficacy (E) is calculated as follows using Abbot's formula: E=(1−α/β)·100 • α corresponds to the fungicidal infection of the treated plants in % and • β corresponds to the fungicidal infection of the untreated (control) plants in %
An efficacy of 0 means that the infection level of the treated plants corresponds to that of the untreated control plants; an efficacy of 100 means that the treated plants are not infected.

Compound | Efficacy in % of the untreated control (4 ppm in the spray liquor) | Efficacy in % of the untreated control (1 ppm in the spray liquor) | Efficacy in % of the untreated control (16 ppm in the spray liquor)
CC1CCN(c2c(-c3c(F)cccc3Cl)c(Cl)nc3ncnn23)CC1 [A] | 0% |  | 
zinc ammoniate-ethylenebis(dithiocarbamate) [II.3] |  | 0% | 22%
manganese-ethylenebis(dithiocarbamate) [II.2] |  | 0% | 11%
manganese-ethylenebis(dithiocarbamate)zinc complex [II.1] |  | 0% | 11%
CC1CCN(c2c(-c3c(F)cc(F)cc3F)c(Cl)nc3ncnn23)CC1 [I, 5-chloro-7-(4-methylpiperidin-1-yl)-6-(2,4,6-trifluorophenyl)-[1,2,4]tri-azolo[1,5-a]pyrimidine] | 33% |  | 
CC(Nc1c(-c2c(F)cc(F)cc2F)c(Cl)nc2ncnn12)C(F)(F)F (centres unmarked) [B] | 67% |  | 
CN(C)C(=S)SSC(=S)N(C)C [II.5, bis(dimethylthiocarbamoyl)disulfide] |  | 0% | 0%
